Species on record: Rattus norvegicus
Assay: Open TG-GATES - Regimen: Single
Assay type: toxicity, organism-based, Sprague-Dawley
Set-up: regimen Single, gender Male, age 6 weeks
Conditions: in vivo, po, route gavage; for APTT / Bas / Eos / Fbg / Hb / Ht / Lym / MCH / MCHC / MCV / Mono / Neu / PT / Plat / RBC / Ret / WBC: tissue Blood; for A/G / ALP / ALT / AST / BUN / CRE / Ca / Cl / DBIL / GLC / IP / K / LDH / Na / PL / RALB / TBIL / TC / TG / TP / gamma-GTP: tissue Plasma
[1] = 30 mg/kg, 3 h, dose level Middle
[2] = 30 mg/kg, 6 h, dose level Middle
[3] = 30 mg/kg, 9 h, dose level Middle
[4] = 30 mg/kg, 24 h, dose level Middle
[5] = 100 mg/kg, 3 h, dose level High
[6] = 100 mg/kg, 6 h, dose level High
[7] = 100 mg/kg, 9 h, dose level High
[8] = 100 mg/kg, 24 h, dose level High

Cn1cc[nH]c1=S [METHIMAZOLE]
TERMINAL_BW [1]: 210.9 g | APTT [1]: 22.2 s | Bas [1]: 0% | Eos [1]: 1% | Fbg [1]: 305 mg/dL | Hb [1]: 14.3 g/dL | Ht [1]: 40.3% | Lym [1]: 73.2% | MCH [1]: 21.7 pg | MCHC [1]: 35.4% | MCV [1]: 61.4 fL | Mono [1]: 3% | Neu [1]: 21.8% | PT [1]: 15.9 s | Plat [1]: 120.3 x10_4/uL | RBC [1]: 657.4 x10_4/ul | Ret [1]: 8% | WBC [1]: 65.4 x10_2/uL | A/G [1]: 1.1 | ALP [1]: 1707.8 IU/L | ALT [1]: 42.8 IU/L | AST [1]: 72.2 IU/L | BUN [1]: 10.4 mg/dL | CRE [1]: 0.1 mg/dL | Ca [1]: 10.7 mg/dL | Cl [1]: 105 meq/L | DBIL [1]: 0 mg/dL | GLC [1]: 186.4 mg/dL | IP [1]: 10.1 mg/dL | K [1]: 4.3 meq/L | LDH [1]: 250.2 IU/L | Na [1]: 141.6 meq/L | PL [1]: 146 mg/dL | RALB [1]: 2.9 g/dL | TBIL [1]: 0.006 mg/dL | TC [1]: 82.4 mg/dL | TG [1]: 64.4 mg/dL | TP [1]: 5.7 g/dL | gamma-GTP [1]: 1 IU/L | TERMINAL_BW [2]: 208.1 g | APTT [2]: 22.7 s | Bas [2]: 0% | Eos [2]: 1% | Fbg [2]: 316.8 mg/dL | Hb [2]: 14 g/dL | Ht [2]: 40% | Lym [2]: 73.6% | MCH [2]: 22 pg | MCHC [2]: 35% | MCV [2]: 62.7 fL | Mono [2]: 2.8% | Neu [2]: 21.8% | PT [2]: 16.2 s | Plat [2]: 123.7 x10_4/uL | RBC [2]: 637.2 x10_4/ul | Ret [2]: 8.4% | WBC [2]: 68.1 x10_2/uL | A/G [2]: 1.2 | ALP [2]: 1225.2 IU/L | ALT [2]: 46.2 IU/L | AST [2]: 71.8 IU/L | BUN [2]: 11.8 mg/dL | CRE [2]: 0.1 mg/dL | Ca [2]: 10.6 mg/dL | Cl [2]: 103.4 meq/L | DBIL [2]: 0.002 mg/dL | GLC [2]: 196.2 mg/dL | IP [2]: 9.4 mg/dL | K [2]: 4.2 meq/L | LDH [2]: 329.8 IU/L | Na [2]: 140.4 meq/L | PL [2]: 141.2 mg/dL | RALB [2]: 2.9 g/dL | TBIL [2]: 0.01 mg/dL | TC [2]: 79.8 mg/dL | TG [2]: 45 mg/dL | TP [2]: 5.5 g/dL | gamma-GTP [2]: 1 IU/L | TERMINAL_BW [3]: 205.3 g | APTT [3]: 22.1 s | Bas [3]: 0% | Eos [3]: 1.2% | Fbg [3]: 299.8 mg/dL | Hb [3]: 13.7 g/dL | Ht [3]: 38.8% | Lym [3]: 75.4% | MCH [3]: 21.5 pg | MCHC [3]: 35.4% | MCV [3]: 60.8 fL | Mono [3]: 2.4% | Neu [3]: 20.2% | PT [3]: 15.7 s | Plat [3]: 121.8 x10_4/uL | RBC [3]: 640 x10_4/ul | Ret [3]: 8.1% | WBC [3]: 70 x10_2/uL | A/G [3]: 1.2 | ALP [3]: 1422 IU/L | ALT [3]: 43.8 IU/L | AST [3]: 71.4 IU/L | BUN [3]: 12.8 mg/dL | CRE [3]: 0.1 mg/dL | Ca [3]: 10.5 mg/dL | Cl [3]: 105.2 meq/L | DBIL [3]: 0.004 mg/dL | GLC [3]: 198 mg/dL | IP [3]: 8.7 mg/dL | K [3]: 3.8 meq/L | LDH [3]: 353.6 IU/L | Na [3]: 140.6 meq/L | PL [3]: 155.8 mg/dL | RALB [3]: 3 g/dL | TBIL [3]: 0.012 mg/dL | TC [3]: 85.4 mg/dL | TG [3]: 81 mg/dL | TP [3]: 5.6 g/dL | gamma-GTP [3]: 1 IU/L | TERMINAL_BW [4]: 212.4 g | APTT [4]: 21 s | Bas [4]: 0% | Eos [4]: 1% | Fbg [4]: 320.4 mg/dL | Hb [4]: 13.9 g/dL | Ht [4]: 39.6% | Lym [4]: 76.6% | MCH [4]: 21.8 pg | MCHC [4]: 35.2% | MCV [4]: 62 fL | Mono [4]: 2.4% | Neu [4]: 19% | PT [4]: 16.3 s | Plat [4]: 115.8 x10_4/uL | RBC [4]: 640 x10_4/ul | Ret [4]: 7.8% | WBC [4]: 84 x10_2/uL | A/G [4]: 1.1 | ALP [4]: 1634.4 IU/L | ALT [4]: 42.4 IU/L | AST [4]: 64.6 IU/L | BUN [4]: 15.4 mg/dL | CRE [4]: 0.1 mg/dL | Ca [4]: 10.7 mg/dL | Cl [4]: 106 meq/L | DBIL [4]: 0 mg/dL | GLC [4]: 180.6 mg/dL | IP [4]: 7 mg/dL | K [4]: 4.4 meq/L | LDH [4]: 211.4 IU/L | Na [4]: 141.6 meq/L | PL [4]: 158.6 mg/dL | RALB [4]: 3 g/dL | TBIL [4]: 0.002 mg/dL | TC [4]: 84.6 mg/dL | TG [4]: 131.4 mg/dL | TP [4]: 5.6 g/dL | gamma-GTP [4]: 1 IU/L | TERMINAL_BW [5]: 213.6 g | APTT [5]: 21.9 s | Bas [5]: 0% | Eos [5]: 1.2% | Fbg [5]: 315 mg/dL | Hb [5]: 13.9 g/dL | Ht [5]: 39.4% | Lym [5]: 74% | MCH [5]: 21.8 pg | MCHC [5]: 35.2% | MCV [5]: 61.9 fL | Mono [5]: 2% | Neu [5]: 23% | PT [5]: 15.4 s | Plat [5]: 121.9 x10_4/uL | RBC [5]: 636.8 x10_4/ul | Ret [5]: 8.7% | WBC [5]: 50 x10_2/uL | A/G [5]: 1.2 | ALP [5]: 1490.2 IU/L | ALT [5]: 55 IU/L | AST [5]: 72.8 IU/L | BUN [5]: 11.8 mg/dL | CRE [5]: 0.1 mg/dL | Ca [5]: 10.6 mg/dL | Cl [5]: 102.8 meq/L | DBIL [5]: 0.002 mg/dL | GLC [5]: 191.2 mg/dL | IP [5]: 9.7 mg/dL | K [5]: 4.2 meq/L | LDH [5]: 351.4 IU/L | Na [5]: 140 meq/L | PL [5]: 153.6 mg/dL | RALB [5]: 3 g/dL | TBIL [5]: 0.008 mg/dL | TC [5]: 89.2 mg/dL | TG [5]: 62.8 mg/dL | TP [5]: 5.6 g/dL | gamma-GTP [5]: 1 IU/L | TERMINAL_BW [6]: 210.2 g | APTT [6]: 22.6 s | Bas [6]: 0% | Eos [6]: 0.8% | Fbg [6]: 306.6 mg/dL | Hb [6]: 14.1 g/dL | Ht [6]: 40.5% | Lym [6]: 72.4% | MCH [6]: 21.4 pg | MCHC [6]: 34.7% | MCV [6]: 61.7 fL | Mono [6]: 3% | Neu [6]: 23% | PT [6]: 16 s | Plat [6]: 117.2 x10_4/uL | RBC [6]: 657.2 x10_4/ul | Ret [6]: 7.8% | WBC [6]: 83.4 x10_2/uL | A/G [6]: 1.1 | ALP [6]: 1474.2 IU/L | ALT [6]: 46.2 IU/L | AST [6]: 66.8 IU/L | BUN [6]: 10 mg/dL | CRE [6]: 0.1 mg/dL | Ca [6]: 10.5 mg/dL | Cl [6]: 104.4 meq/L | DBIL [6]: 0.002 mg/dL | GLC [6]: 193 mg/dL | IP [6]: 9.1 mg/dL | K [6]: 4.2 meq/L | LDH [6]: 344.8 IU/L | Na [6]: 140.2 meq/L | PL [6]: 136.6 mg/dL | RALB [6]: 2.9 g/dL | TBIL [6]: 0.014 mg/dL | TC [6]: 80.2 mg/dL | TG [6]: 52.4 mg/dL | TP [6]: 5.5 g/dL | gamma-GTP [6]: 1.2 IU/L | TERMINAL_BW [7]: 206.1 g | APTT [7]: 21.2 s | Bas [7]: 0% | Eos [7]: 1% | Fbg [7]: 319.2 mg/dL | Hb [7]: 13.8 g/dL | Ht [7]: 39% | Lym [7]: 71.4% | MCH [7]: 21.8 pg | MCHC [7]: 35.3% | MCV [7]: 61.7 fL | Mono [7]: 2.8% | Neu [7]: 23.4% | PT [7]: 16.5 s | Plat [7]: 134.8 x10_4/uL | RBC [7]: 631.2 x10_4/ul | Ret [7]: 8.1% | WBC [7]: 88.6 x10_2/uL | A/G [7]: 1.2 | ALP [7]: 1403 IU/L | ALT [7]: 47 IU/L | AST [7]: 69.8 IU/L | BUN [7]: 12.6 mg/dL | CRE [7]: 0.1 mg/dL | Ca [7]: 10.4 mg/dL | Cl [7]: 105.6 meq/L | DBIL [7]: 0.004 mg/dL | GLC [7]: 195.2 mg/dL | IP [7]: 8.6 mg/dL | K [7]: 4.2 meq/L | LDH [7]: 309.6 IU/L | Na [7]: 140.6 meq/L | PL [7]: 144.4 mg/dL | RALB [7]: 2.9 g/dL | TBIL [7]: 0.014 mg/dL | TC [7]: 78.6 mg/dL | TG [7]: 71.6 mg/dL | TP [7]: 5.5 g/dL | gamma-GTP [7]: 1 IU/L | TERMINAL_BW [8]: 209.2 g | APTT [8]: 20.8 s | Bas [8]: 0% | Eos [8]: 1.2% | Fbg [8]: 303.8 mg/dL | Hb [8]: 14.1 g/dL | Ht [8]: 40% | Lym [8]: 76.8% | MCH [8]: 21.6 pg | MCHC [8]: 35.3% | MCV [8]: 61.1 fL | Mono [8]: 2.4% | Neu [8]: 18.8% | PT [8]: 16.5 s | Plat [8]: 125.7 x10_4/uL | RBC [8]: 655.6 x10_4/ul | Ret [8]: 7.6% | WBC [8]: 63.5 x10_2/uL | A/G [8]: 1.2 | ALP [8]: 1903.8 IU/L | ALT [8]: 44.2 IU/L | AST [8]: 55.6 IU/L | BUN [8]: 12.6 mg/dL | CRE [8]: 0.1 mg/dL | Ca [8]: 10.9 mg/dL | Cl [8]: 106.4 meq/L | DBIL [8]: 0.004 mg/dL | GLC [8]: 170 mg/dL | IP [8]: 7.2 mg/dL | K [8]: 4.3 meq/L | LDH [8]: 263 IU/L | Na [8]: 142 meq/L | PL [8]: 159.8 mg/dL | RALB [8]: 2.9 g/dL | TBIL [8]: 0.016 mg/dL | TC [8]: 84.6 mg/dL | TG [8]: 129.6 mg/dL | TP [8]: 5.4 g/dL | gamma-GTP [8]: 1 IU/L
